# “And” between values parts separate entries of the source, which are not always exact repeats. Equal values may be shown once. Read-outs that look alike come from different tables or passages of the source.
# Columns and labels:
# Yohimbin-Toxizität = experiment: Potentiation of yohimbine toxicity in mice (Methode 2); assay type: in vivo, Maus; settings: Methode 2, mouse; for LD50, mg/kg p.o.: 1 h before yohimbine hydrochloride 20 mg/kg s.c., deaths after 18 h
# Experimental: Die Toxizität von Yohimbin, einem Blocker präsynaptischer alpha-Rezeptoren, wird durch Antidepressiva potenziert (Literatur R.M. Quinton, Brit. J. Pharmac. 21 , 55-56 (1963)). Männliche Mäuse, NMRI-Stamm, 20-22 g, wurden in Versuchsgruppen zu n = 10 zugeordnet. Das Prüfpräparat wurde in 1 %igem wäßrigen Tylose@-Schleim suspendiert und im Volumen 10 ml/kg oral gegeben. Kontrollen erhielten nur das Vehikel.
# Nach einer Vorbehandlungszeit von 1 Stunde erhielten alle Tiere eine allein nicht toxische Dosis von Yohimbin-Hydrochlorid, 20 mg/kg subkutan. Die verstorbenen Tiere wurden 18 Stunden nach dieser Behandlung ermittelt. (Berechnung der LDso mit Probit-Analyse).
# Stereotypien = experiment: Induction of stereotypies in rats (Methode 3); assay type: in vivo; settings: Methode 3, rat, p.o.; dose up to which no stereotypies were seen
# From the text: Die Versuche wurden an Wistar-Ratten, männlich, 130-140 g durchgeführt. Die Stereotypien wurden in den ersten beiden Stunden nach Substanzgabe in 15-Minuten-Intervallen beurteilt, danach bis zur 6. Stunde in halbstündigen Intervallen. Die folgende Skala wurde benutzt.
# Die Punktzahlen wurden errechnet alß Gesamtzahl pro 6 Stunden, dividiert durch die Zahl der Beobachtungen.
# Der EDso-Wert ist die Dosis, bei der die Hälfte der maximal möglichen Punktzahl (5 Punkte multipliziert mit der Zahl der Beobachtungen) erreicht wird.
# Tetrabenazin-Ptosis = experiment: Effect on tetrabenazine ptosis (TBZ method, Methode 1); assay type: in vivo, Maus; settings: for ED50: Mus musculus
# Experimental: Sechs männl. Tieren wird die entsprechende Menge eines Homogenats der jeweiligen Substanz in wäßriger Carboxymethylcellulose oder Methyl-hydroxyethylcellulose 30 Min. vor der Behandlung mit Tetrabenazin (40 mg/kg intraperitoneal) mit Schlundsonde gefüttert. […]
# [1] = tested on: Aufnahme von 14C-Noradrenalin in Synaptosomen; experiment: Inhibition of noradrenaline reuptake in synaptosomes (Methode 4); assay type: biochemical, Ratte; settings: 50 % inhibition of 14C-noradrenaline uptake, 37 °C, 4 min
# Experimental: Synaptosomen aus Rattenhirn werden nach der Methode von Whittaker (Handbook of Neurochemistry 2 , 327-364, Editor A. Lajtha; London and New York, 1969) isoliert und die Monoamin-Aufnahme nach der Methode von Schacht und Heptner gemessen (Biochemical Pharmac. 23 , 3413-3422). Die 14C Noradrenalin-Aufnahme wurde in einem Krebs-Henseleit-Bikarbonatpuffer pH 7,4, der 11 Millimol Glucose enthielt, gemessen. 2,5 ml der Synaptosomen-Suspension wurden mit markiertem Noradrenalin bei 37 ° C inkubiert in Gegenwart von oder ohne Testsubstanz. Die Inkubationszeit betrug 4 Minuten. Die weitere Aufnahme wurde dann durch Abkühlen mit Eis gestoppt. Um nichtspezifische Adsorptionen auszuschließen, wurden Kontrollproben bei 0 ° C unter sonst gleichen Bedingungen inkubiert.
# Die aufgenommenen Noradrenalinmengen wurden mit Hilfe der Membranfiltrationstechnik mit einem Millipore Sampling Manifold mit Cellulosenitratfiltern von 25 mm Durchmesser und 0,6 Mikrometer Porengröße gemessen. Die Synaptosomen wurden unter vermindertem Druck gesammelt und die Radioaktivität in einem Packard-Tricarb-Scintillationszähler bestimmt. Die Menge an angesammeltem Noradrenalin wurde angegeben als Prozent Radioaktivität, die zur Inkubationsmischung zugesetzt wurde.
# Die ICso-Werte (inhibitory concentration) der nachstehenden Tabellen geben die Konzentrationen der Testsubstanzen an, welche die Aufnahme von ^14C-Noradrenalin zu 50 % hemmen.
# [2] = tested on: Tiermodelle, prädiktiv für antidepressive Wirkung beim Menschen; experiment: General pharmacological testing in animal models predictive of antidepressant action in man; assay type: in vivo; settings: result in words
# From the text: Bei der pharmakologischen Untersuchung des (+)-Enantiomeren der Verbindung der Formel I wurden unerwartet starke Wirkungen dieser Substanz in Tiermodellen, die als prädiktiv für antidepressive Wirkung beim Menschen gelten, gefunden.
# Die pharmakologischen Prüfungen wurden mit bekannten Modellen, die als prädiktiv für antidepressive Wirkung beim Menschen gelten, durchgeführt. Das sind beispielsweise: die Beeinflussung der Tetrabenazin-Ptosis bei der Maus und die Potenzierung der Yohimbin-Toxizität bei Mäusen. Als weiteres Beurteilungskriterium wurde beispielsweise die Prüfung der Auslösung von Stereotypien an Ratten herangezogen.
# [3] = tested on: Tiermodelle, prädiktiv für antidepressive Wirkung beim Menschen; settings: as named in Deutsche Patentanmeldung P 36 28 545.5; cited from earlier work
# [4] = read-out: ED50, mg/kg p.o. (Vertrauensgrenzen), Methode 1, mouse, 30 min before tetrabenazine 40 mg/kg i.p., confidence limits in brackets, repeated determinations
# [5] = Methode 1, mouse, p.o., 30 min before tetrabenazine 40 mg/kg i.p., confidence limits in brackets, repeated determinations, read-out: ED50, mg/kg p.o. (Vertrauensgrenzen)
# [6] = Methode 1, mouse, 30 min before tetrabenazine 40 mg/kg i.p., confidence limits in brackets, repeated determinations
SMILES,"LD50, mg/kg p.o. (Yohimbin-Toxizität)",keine Stereotypien bis (Stereotypien),ED50 (Tetrabenazin-Ptosis; [4]),ED50; mg/kg p.o. (Vertrauensgrenzen) (Tetrabenazin-Ptosis; [6]),other results
OC1(C(c2cccc(Cl)c2)n2ccnc2)C2CC3CC(C2)CC1C3 (stereo not drawn),"4,4 mg/kg",> 300 mg/kg,–,–,–
COc1ccc(C(n2ccnc2)C2(O)C3CC4CC(C3)CC2C4)cc1OC (stereo not drawn),"3,0 mg/kg",–,3 mg/kg,–,–
OC1(C(c2ccc3ccccc3c2)n2ccnc2)C2CC3CC(C2)CC1C3 (stereo not drawn),"3,2 mg/kg",–,3 mg/kg,–,–
OC(C(c1cccc(Cl)c1)n1ccnc1)C12CC3CC(CC(C3)C1)C2 (stereo not drawn),"8,5 mg/kg",> 30 mg/kg,–,–,ED50 (Tetrabenazin-Ptosis; [5]): 3.7 mg/kg
CC(C)(C)C(O)C(c1ccc(-c2ccccc2)cc1)n1ccnc1 (stereo not drawn),"5,3 mg/kg",> 30 mg/kg,–,–,ED50 (Tetrabenazin-Ptosis; [5]): 3 mg/kg; IC50 [1]: > 1 µM
CCCC(C)(C)C(O)C(c1ccc(-c2ccccc2)cc1)n1ccnc1 (stereo not drawn),"24,5 mg/kg",keine Stereotypien,–,–,–
C=CCC1(C(O)C(c2cccc(Cl)c2)n2ccnc2)CCCCC1 (stereo not drawn),–,–,3.9 mg/kg,"6,1 (0,5-72,9) mg/kg",–
"OC1(C(c2cccc(Cl)c2)n2ccnc2)C2CC3CC(C2)CC1C3 (single isomer, unassigned)","8,5 (0,5-130) mg/kg",> 30 mg/kg,2.9 mg/kg,"2,3 (0,9-5,8) mg/kg","IC50 [1]: 0.12 µM; LD50, mg/kg p.o. (Yohimbin-Toxizität; 1080 min): 4,6 mg/kg"
"OC1(C(c2cccc(Cl)c2)n2ccnc2)C2CC3CC(C2)CC1C3 (single isomer, unassigned; (+)) [(+)-(2-Hydroxy-2-adamantyl)-1-imidazolyl-(3-chlorphenyl)-methan]",–,–,–,–,pharmakologische Wirkung [2]: geringere Wirkung
"Cc1cccc(C(n2ccnc2)C2(O)C3CC4CC(C3)CC2C4)c1 (single isomer, unassigned; (+)) [Beispiel 1]","2,9 (0,2 - 41,3) mg/kg",keine Stereotypien bis 100 mg/kg p.o.,1.3 mg/kg and 1.75 mg/kg,"1,2 (0,3 - 3,5) mg/kg and 1,9 (1,0 - 3,5) mg/kg and 1,4 (0,7 - 2,7) mg/kg","LD50 umgerechnet (F:O,68) auf äquimolare Menge Base (nach Beispiel 2) (Yohimbin-Toxizität; p.o., tested as hydrogentartrate, converted to equimolar amount of base, 1080 min): 2,0 (0,1 - 28,1) mg/kg"
"Cc1cccc(C(n2ccnc2)C2(O)C3CC4CC(C3)CC2C4)c1 (single isomer, unassigned; enantiomere) [(-)-Enantiomere der Verbindung I]",–,–,–,–,pharmakologische Wirkung [2]: pharmakologisch unwirksam
Cc1cccc(C(n2ccnc2)C2(O)C3CC4CC(C3)CC2C4)c1 (stereo not drawn) [(2-Hydroxy-2-adamantyl)-1-imidazolyl-3-tolyl-methan],–,–,–,–,antidepressive Wirkung in prädiktiven Tiermodellen [3]: antidepressiv wirksam
Cc1cccc(C(n2ccnc2)C2(O)C3CC4CC(C3)CC2C4)c1 (stereo not drawn) [drawing 18],"7,1 mg/kg",> 30 mg/kg,1.5 mg/kg,"1,7 (0,5-5,9) mg/kg",IC50 [1]: 0.12 µM
